Test results from PubChem BioAssay (NCI).
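Protocol summary: plate cells (96-well), add compound at 5 concentrations, incubate 48 h, interpolate endpoints linearly. Definition used: TGI = concentration required for complete inhibition of growth.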 Where a SMILES comes first, the peptide text is derived from it. [ ]: non-standard residue; d: D form. The star is where a group is joined. Phe(4-NO2) = N[CH](Cc1ccc([N+](=O)[O-])cc1)C(=O)O; Cbz = O=C(OCc1ccccc1)*

Experiments:
Test in all cases: DTP human tumour cell line panel, 48 h
DU-145 prostate = system: DU-145 prostate
EKVX NSCLC = system: EKVX NSCLC
RXF 393 renal = system: RXF 393 renal
LOX IMVI melanoma = system: LOX IMVI melanoma
HCT-15 colon = system: HCT-15 colon
SNB-19 CNS = system: SNB-19 CNS
SR leukemia = system: SR leukemia
NCI/ADR-RES ovarian = system: NCI/ADR-RES ovarian
NCI-H226 lung = system: NCI-H226 lung
U251 CNS = system: U251 CNS
HT29 colon = system: HT29 colon
SF-268 CNS = system: SF-268 CNS
UO-31 renal = system: UO-31 renal

| Compound | TGI (DU-145 prostate) [µM] | TGI (EKVX NSCLC) [µM] | TGI (RXF 393 renal) [µM] | TGI (LOX IMVI melanoma) [µM] | TGI (HCT-15 colon) [µM] | TGI (SNB-19 CNS) [µM] | TGI (SR leukemia) [µM] | TGI (NCI/ADR-RES ovarian) [µM] | TGI (NCI-H226 lung) [µM] | TGI (U251 CNS) [µM] | TGI (HT29 colon) [µM] | TGI (SF-268 CNS) [µM] | TGI (UO-31 renal) [µM] |
| --- | --- | --- | --- | --- | --- | --- | --- | --- | --- | --- | --- | --- | --- |
| c1ccc([P+](Cc2ccc(C[P+](c3ccccc3)(c3ccccc3)c3ccccc3)s2)(c2ccccc2)c2ccccc2)cc1 | > 100 | > 100 | > 100 | > 100 | > 100 | > 100 | > 100 | > 100 | > 100 | > 100 | > 100 | > 100 | > 100 |
| CCOC(=O)C1=C(C)N(Cc2ccccc2)C2(O)C=CC(=O)C3C(=O)N(c4ccccc4)C(=O)C132 (stereo unspecified) | 7.63 | 22.5 | 2.94 | 3.43 | 5.14 | 21.4 | 2.88 | 10.6 | 5.7 | 11.8 | 3.33 | 7.81 | 3.81 |
| c1ccc(CSCCC(SCc2ccccc2)SCc2ccccc2)cc1 | > 10 | > 10 | > 10 | > 10 | > 10 | > 10 | > 10 | > 10 | > 10 | > 10 | > 10 | > 10 | > 10 |
| COc1ccc(-n2c(C)nc3ccc(NC4OC(COC(C)=O)C(OC(C)=O)C(OC(C)=O)C4OC(C)=O)cc3c2=O)cc1 (stereo unspecified) | > 100 | > 100 | 87.4 | > 100 | > 100 | > 100 | > 100 | > 100 | > 100 | > 100 | > 100 | > 100 | > 100 |
| O=C(Cn1c(C(=O)/C=C/c2ccc(Cl)c(Cl)c2)nc2ccccc21)c1ccccc1 | > 100 | 42.8 | 57.2 | 39.1 | 91.6 | 86.1 | 80 | 73 | > 100 | > 100 | 45.5 | > 100 | 56 |
| N#Cc1ccccc1NC(=O)C(O)C(O)C(O)C(O)C=O (stereo unspecified) | > 100 | > 100 | > 100 | > 100 | > 100 | > 100 | > 100 | > 100 | > 100 | > 100 | > 100 | > 100 | > 100 |
| CCOC(=O)CCC(NC(=O)OCc1ccccc1)C(=O)NC(CCC(=O)OCC)C(=O)NC(CCC(=O)OCC)C(=O)NC(CCC(=O)OCC)C(=O)NC(CCC(=O)OCC)C(=O)NC(Cc1ccc([N+](=O)[O-])cc1)C(=O)NC(CCC(=O)OCC)C(=O)NC(CCC(=O)OCC)C(=O)NC(CCC(=O)OCC)C(=O)NC(CCC(=O)OCC)C(=O)NC(CCC(=O)OCC)C(=O)OCC (stereo unspecified) (Cbz-E(OEt)E(OEt)E(OEt)E(OEt)E(OEt)[Phe(4-NO2)]E(OEt)E(OEt)E(OEt)E(OEt)E(OEt)-OEt; configuration not given here) | > 50 | > 50 | > 50 | > 50 | > 50 | > 50 | > 50 | > 50 | > 50 | > 50 | > 50 | > 50 | > 50 |
| COc1ccc(C(=O)c2[nH]c(Nc3cc(C)ccn3)c(C(=S)Nc3ccccc3)c2N)cc1 | > 100 | > 100 | 38.4 | 42.2 | 55.9 | 56 | > 100 | 24.3 | 47.3 | 36.4 | 39.4 | 68.2 | 57.4 |
| COC(=O)/C=C1\C(=O)Nc2ccc(Br)cc21 | 4.38 | 4.49 | 3.27 | 2.25 | 2.81 | 11.4 | 1.56 | 4.49 | 4.03 | 4.73 | 3.68 | 13.8 | 5.55 |
| ON[C@@H]1C=C[C@H](n2cnc3c(NC4CC4)ncnc32)C1 | > 100 | > 100 | > 100 | > 100 | > 100 | > 100 | > 100 | > 100 | > 100 | > 100 | > 100 | > 100 | > 100 |
| Clc1nc(NC23CC4CC(CC(C4)C2)C3)nc(NC23CC4CC(CC(C4)C2)C3)n1 | > 100 | > 100 | > 80.2 | > 100 | > 100 | > 100 | > 100 | > 100 | > 100 | > 69 | > 100 | > 100 | > 100 |
| COc1ccc(-n2c(C)nc3ccc(NC4OCC(OC(C)=O)C(OC(C)=O)C4OC(C)=O)cc3c2=O)cc1 (stereo unspecified) | > 100 | > 100 | > 100 | > 100 | > 100 | > 100 | > 100 | > 100 | > 100 | > 100 | > 100 | > 100 | > 100 |
| CCOC1OC(CO[Si](C)(C)C(C)(C)C)C(O)CC1n1ccc(=O)[nH]c1=O (stereo unspecified) | > 100 | > 100 | > 100 | 31.6 | > 100 | > 100 | > 100 | > 100 | > 100 | > 100 | > 100 | > 100 | > 100 |
| C#CCNC(CCCN=C(N)N)C(=O)O (stereo unspecified) | > 100 | > 100 | > 100 | > 100 | > 100 | > 100 | > 100 | > 100 | > 100 | > 100 | > 100 | > 100 | > 100 |
| CCCCCCCCC#CCCCCCCC(F)C(=O)O (stereo unspecified) | > 100 | > 100 | > 100 | > 100 | > 100 | > 100 | > 100 | > 100 | > 100 | > 100 | > 100 | > 100 | > 100 |
| CC1=NN(c2ccccc2Cl)C2(C1)C(Cl)C(=O)N2c1nc2ccccc2s1 (stereo unspecified) | > 100 | > 100 | > 100 | 33.7 | > 100 | > 100 | 49.6 | > 100 | > 100 | 76.5 | > 100 | > 100 | > 100 |

| Compound | TGI (DU-145 prostate) [µM] | TGI (EKVX NSCLC) [µM] | TGI (RXF 393 renal) [µM] | TGI (LOX IMVI melanoma) [µM] | TGI (HCT-15 colon) [µM] | TGI (SNB-19 CNS) [µM] | TGI (SR leukemia) [µM] | TGI (NCI/ADR-RES ovarian) [µM] | TGI (NCI-H226 lung) [µM] | TGI (U251 CNS) [µM] | TGI (HT29 colon) [µM] | TGI (SF-268 CNS) [µM] | TGI (UO-31 renal) [µM] |
| --- | --- | --- | --- | --- | --- | --- | --- | --- | --- | --- | --- | --- | --- |
| CCSc1c2cc(OC)ccc2nc2ccc(OC)cc12 | > 72.5 | > 54 | 63 | > 76.9 | > 100 | > 100 | > 23.5 | > 69.7 | 40.1 | > 79.2 | 98 | > 58.6 | > 60.7 |
| O=C(NC1C(=O)NC(CCc2ccccc2)NC1=O)OCc1ccccc1 (stereo unspecified) | > 100 | > 100 | > 100 | > 100 | > 100 | > 100 | > 100 | > 100 | > 100 | > 100 | > 100 | > 100 | > 100 |
| O=C(N/N=C\c1ccc([N+](=O)[O-])cc1)Nc1ccc2ccccc2c1 | > 100 | > 100 | > 100 | > 100 | > 100 | > 100 | > 100 | > 100 | > 100 | 45.8 | 72.2 | > 100 | > 100 |
| COc1ccc(/C=N/n2c(Cc3ccccc3)n[nH]c2=O)c(OC)c1 | > 100 | 99.4 | > 63.2 | > 85.3 | > 100 | > 77.5 | > 100 | 86.5 | > 80.9 | > 65.1 | > 64.5 | 47 | > 63.1 |
| CCOc1ccc(NC(=O)/C=C/c2ccco2)cc1 | > 100 | > 100 | > 100 | > 100 | > 100 | > 100 | > 100 | > 100 | > 100 | > 100 | > 100 | > 100 | > 100 |
| CSCCCNC(=O)c1csc(-c2csc(CCNC(=O)CNC(=O)OC(C)(C)C)n2)n1 | > 100 | > 100 | > 100 | > 100 | > 100 | > 100 | > 100 | > 100 | > 100 | > 100 | > 100 | > 100 | > 100 |
| O=C1C=CC2(C=C1)O[C@H](CCc1ccccc1)[C@@H](CCc1ccccc1)O2 | > 100 | 83.3 | > 100 | 27.3 | > 100 | > 100 | > 100 | > 100 | > 100 | 38.2 | > 100 | > 100 | > 100 |
| Fc1nc(-c2c3ccccc3c3sc4ccccc4n23)nc(N2CCOCCOCCOCCOCC2)n1 | > 100 | > 100 | 51.6 | > 100 | > 100 | > 100 | 68.6 | > 100 | > 100 | > 100 | > 100 | > 100 | > 100 |
| NC(N)=NS(=O)(=O)c1ccc(NCc2cccc3c(=O)c4ccc(Cl)cc4oc23)cc1 | 17.3 | > 21.9 | 7.17 | > 11.3 | > 20 | 22.2 | > 25 | > 14 | > 25 | > 14.6 | > 14.6 | 12.7 | > 12.1 |
| COP(=O)(OC)[C@@](O)(c1ccccc1)[C@@H](O)[C@@H](O)c1ccccc1 | > 100 | > 100 | > 100 | 37.9 | > 100 | > 100 | 1.91 | > 100 | > 100 | > 100 | > 100 | > 100 | > 100 |
| Cc1ccccc1-n1c(=O)nc2n(-c3ccc(C(C)(C)C)cc3)c3ccccc3cc-2c1=O | 77.1 | 64.6 | 39 | 30.3 | 32.8 | 54.4 | 59.7 | 40.6 | 38.2 | 28.3 | 34.6 | 83.2 | 95.1 |
| O=C1NCC2(CCN(CC3COc4ccccc4O3)CC2)N1c1ccccc1 (stereo unspecified) | > 100 | > 100 | > 100 | > 100 | > 100 | > 100 | > 100 | > 100 | > 100 | > 100 | > 100 | > 100 | > 100 |
| CC(C)(C(=O)N(C(=O)N1CCN(c2ccccc2)CC1)S(=O)(=O)c1ccccc1)c1ccc(Cl)cc1 | > 100 | 63.1 | > 100 | > 100 | > 100 | > 100 | > 100 | > 100 | > 100 | > 100 | > 100 | > 100 | 34.3 |
| Cc1ccc2c(n1)C(=O)c1cc(C)c(C)cc1C2=O | > 100 | > 100 | > 100 | > 100 | > 100 | > 100 | 85.1 | > 100 | > 100 | > 100 | > 100 | > 100 | > 100 |
| CN(C)Cc1cc(C(=O)/C=C/c2ccc(Cl)cc2Cl)cc(CN(C)C)c1O | 16.7 | 19.7 | 10.7 | 2.49 | 14.6 | 19.9 | > 100 | 5.7 | 24 | 15.7 | 6.91 | 20 | 6.01 |
| Cc1cc(NS(=O)(=O)c2ccc(NC(=O)c3ccc4nc5ccccc5c(Nc5ccc(S(N)(=O)=O)cc5)c4c3)cc2)no1 | > 100 | 63 | 58.4 | 26.5 | 41.3 | > 100 | 73.4 | > 100 | > 100 | 64.7 | 72.2 | > 100 | 43.4 |
